Experiment: Precipitation of ibuprofen from solution on contact with aqueous medium / artificial gastric juice or on cooling
Type: physicochemical
Conditions: addition of small amounts of water, or aqueous medium such as artificial gastric juice
Source text: It is an object of the present invention to provide a medicament that can be readily taken that contains an active amount of ibuprofen in a carrier, that is simple to prepare and that will quickly display a high activity. […] When such a solution, upon oral administration, gets into the stomach, then the aqueous content of the stomach causes the ibuprofen to be precipitated so that it will be barred from a quick resorption. […] In addition, these solutions may be incorporated in soft gelatin capsules in a per se known manner. The latter dosage form has an advantage over all other previously known dosage forms for ibuprofen that upon intake the active ingredient is quickly resorbed. To this effect it is not necessary that, subsequent to synthesis, the active ingredient is subjected to expensive galenic processing measures. […] In order to dissolve ibuprofen in the solvents according to the invention, the solvents are heated at 45° C. to 65° C., since only at these temperatures the dissolution will take place sufficiently fast. Upon cooling to room temperature, no reprecipitation occurs. […] It is readily possible that 40 parts by weight are additionally suspended in said solutions at room temperature and thereafter incorporated in soft gelatin capsules. […]

## CC(C)Cc1ccc(C(C)C(=O)O)cc1 (stereo not shown) [Ibuprofen, 2-(4-isobutylphenyl)propionic acid]
  precipitation on contact with aqueous medium (in words): will immediately precipitate upon the addition of small amounts of water

From US4690823A, “Ibuprofen-containing soft gelatin capsules and process for preparing same” (Dolorgiet Beteiligungs-GmbH, priority 1984, dated 1987)
